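Each compound was tested at five concentrations against cells in 96-well plates for 48 hours. GI50: concentration for 50% inhibition of growth. TGI: concentration producing complete growth inhibition.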
Legend:
Test in all cases: inhibition of tumour cell growth, NCI panel, 48 h
U251 CNS = tested on: U251 CNS
MDA-MB-435 = tested on: MDA-MB-435
OVCAR-8 ovarian = tested on: OVCAR-8 ovarian
COLO 205 colon = tested on: COLO 205 colon
CCRF-CEM leukemia = tested on: CCRF-CEM leukemia
TK-10 renal = tested on: TK-10 renal
A498 renal = tested on: A498 renal
BT-549 breast = tested on: BT-549 breast
RXF 393 renal = tested on: RXF 393 renal
M14 melanoma = tested on: M14 melanoma
RPMI-8226 leukemia = tested on: RPMI-8226 leukemia
CAKI-1 renal = tested on: CAKI-1 renal
HS 578T breast = tested on: HS 578T breast
SF-295 CNS = tested on: SF-295 CNS
IGROV1 ovarian = tested on: IGROV1 ovarian
HT29 colon = tested on: HT29 colon
HOP-92 NSCLC = tested on: HOP-92 NSCLC
NCI-H522 lung = tested on: NCI-H522 lung
HCT-116 colon = tested on: HCT-116 colon
EKVX NSCLC = tested on: EKVX NSCLC
786-0 renal = tested on: 786-0 renal
UO-31 renal = tested on: UO-31 renal
SK-MEL-2 melanoma = tested on: SK-MEL-2 melanoma
HOP-62 NSCLC = tested on: HOP-62 NSCLC
SK-OV-3 ovarian = tested on: SK-OV-3 ovarian
NCI-H226 lung = tested on: NCI-H226 lung
OVCAR-5 ovarian = tested on: OVCAR-5 ovarian
NCI-H460 lung = tested on: NCI-H460 lung
SNB-19 CNS = tested on: SNB-19 CNS
PC-3 prostate = tested on: PC-3 prostate
T-47D breast = tested on: T-47D breast
HCT-15 colon = tested on: HCT-15 colon
UACC-257 melanoma = tested on: UACC-257 melanoma
HL-60(TB) leukemia = tested on: HL-60(TB) leukemia
MOLT-4 leukemia = tested on: MOLT-4 leukemia
SN12C renal = tested on: SN12C renal
SNB-75 CNS = tested on: SNB-75 CNS
DU-145 prostate = tested on: DU-145 prostate
MALME-3M melanoma = tested on: MALME-3M melanoma
SK-MEL-28 melanoma = tested on: SK-MEL-28 melanoma
NCI-H23 lung = tested on: NCI-H23 lung
NCI/ADR-RES ovarian = tested on: NCI/ADR-RES ovarian
UACC-62 melanoma = tested on: UACC-62 melanoma
SF-539 CNS = tested on: SF-539 CNS
OVCAR-4 ovarian = tested on: OVCAR-4 ovarian
MDA-MB-231 breast = tested on: MDA-MB-231 breast
SK-MEL-5 melanoma = tested on: SK-MEL-5 melanoma
LOX IMVI melanoma = tested on: LOX IMVI melanoma
HCC-2998 colon = tested on: HCC-2998 colon
A549 NSCLC = tested on: A549 NSCLC
OVCAR-3 ovarian = tested on: OVCAR-3 ovarian
ACHN renal = tested on: ACHN renal
K-562 leukemia = tested on: K-562 leukemia
KM12 colon = tested on: KM12 colon
MCF7 breast = tested on: MCF7 breast
SR leukemia = tested on: SR leukemia
SF-268 CNS = tested on: SF-268 CNS
SW-620 colon = tested on: SW-620 colon

SMILES: CCN1CCN(c2ccc(Nc3ncc4ccc5ncn(C(C)C)c5c4n3)nc2)CC1
- GI50 (U251 CNS): 108 nM
- TGI (U251 CNS): 3940 nM
- GI50 (MDA-MB-435): 132 nM
- TGI (MDA-MB-435): 1610 nM
- GI50 (OVCAR-8 ovarian): 311 nM
- TGI (OVCAR-8 ovarian): 16300 nM
- GI50 (COLO 205 colon): 85.2 nM
- TGI (COLO 205 colon): 342 nM
- GI50 (CCRF-CEM leukemia): 145 nM
- TGI (CCRF-CEM leukemia): 3630 nM
- GI50 (TK-10 renal): 35.9 nM
- TGI (TK-10 renal): 873 nM
- GI50 (A498 renal): < 33.7 nM
- TGI (A498 renal): 241 nM
- GI50 (BT-549 breast): 218 nM
- TGI (BT-549 breast): 687 nM
- GI50 (RXF 393 renal): 76.5 nM
- TGI (RXF 393 renal): 248 nM
- GI50 (M14 melanoma): 124 nM
- TGI (M14 melanoma): 1340 nM
- GI50 (RPMI-8226 leukemia): < 32.4 nM
- TGI (RPMI-8226 leukemia): 1450 nM
- GI50 (CAKI-1 renal): 25 nM
- TGI (CAKI-1 renal): 520 nM
- GI50 (HS 578T breast): 155 nM
- TGI (HS 578T breast): 618 nM
- GI50 (SF-295 CNS): 224 nM
- TGI (SF-295 CNS): 794 nM
- GI50 (IGROV1 ovarian): 34.7 nM
- TGI (IGROV1 ovarian): 1600 nM
- GI50 (HT29 colon): 48.9 nM
- TGI (HT29 colon): 15500 nM
- GI50 (HOP-92 NSCLC): 155 nM
- TGI (HOP-92 NSCLC): 474 nM
- GI50 (NCI-H522 lung): 208 nM
- TGI (NCI-H522 lung): 809 nM
- GI50 (HCT-116 colon): 31.2 nM
- TGI (HCT-116 colon): 550 nM
- GI50 (EKVX NSCLC): 131 nM
- TGI (EKVX NSCLC): 563 nM
- GI50 (786-0 renal): 102 nM
- TGI (786-0 renal): 1690 nM
- GI50 (UO-31 renal): 29.1 nM
- TGI (UO-31 renal): 378 nM
- GI50 (SK-MEL-2 melanoma): 144 nM
- TGI (SK-MEL-2 melanoma): 357 nM
- GI50 (HOP-62 NSCLC): 92.3 nM
- TGI (HOP-62 NSCLC): 3220 nM
- GI50 (SK-OV-3 ovarian): 271 nM
- TGI (SK-OV-3 ovarian): 847 nM
- GI50 (NCI-H226 lung): 148 nM
- TGI (NCI-H226 lung): 2670 nM
- GI50 (OVCAR-5 ovarian): 37 nM
- TGI (OVCAR-5 ovarian): 21500 nM
- GI50 (NCI-H460 lung): 77.7 nM
- TGI (NCI-H460 lung): 680 nM
- GI50 (SNB-19 CNS): 187 nM
- TGI (SNB-19 CNS): 15500 nM
- GI50 (PC-3 prostate): 107 nM
- TGI (PC-3 prostate): 1360 nM
- GI50 (T-47D breast): 199 nM
- TGI (T-47D breast): 7300 nM
- GI50 (HCT-15 colon): 63.6 nM
- TGI (HCT-15 colon): 1160 nM
- GI50 (UACC-257 melanoma): 283 nM
- TGI (UACC-257 melanoma): 27100 nM
- GI50 (HL-60(TB) leukemia): < 23.8 nM
- TGI (HL-60(TB) leukemia): 586 nM
- GI50 (MOLT-4 leukemia): 41.6 nM
- TGI (MOLT-4 leukemia): 1910 nM
- GI50 (SN12C renal): 139 nM
- TGI (SN12C renal): 17900 nM
- GI50 (SNB-75 CNS): 140 nM
- TGI (SNB-75 CNS): 415 nM
- GI50 (DU-145 prostate): 126 nM
- TGI (DU-145 prostate): 4300 nM
- GI50 (MALME-3M melanoma): 134 nM
- TGI (MALME-3M melanoma): 1690 nM
- GI50 (SK-MEL-28 melanoma): 200 nM
- TGI (SK-MEL-28 melanoma): 1450 nM
- GI50 (NCI-H23 lung): 211 nM
- TGI (NCI-H23 lung): 850 nM
- GI50 (NCI/ADR-RES ovarian): 292 nM
- TGI (NCI/ADR-RES ovarian): 13900 nM
- GI50 (UACC-62 melanoma): 199 nM
- TGI (UACC-62 melanoma): 723 nM
- GI50 (SF-539 CNS): 171 nM
- TGI (SF-539 CNS): 394 nM
- GI50 (OVCAR-4 ovarian): 273 nM
- TGI (OVCAR-4 ovarian): 885 nM
- GI50 (MDA-MB-231 breast): 111 nM
- TGI (MDA-MB-231 breast): 727 nM
- GI50 (SK-MEL-5 melanoma): 153 nM
- TGI (SK-MEL-5 melanoma): 405 nM
- GI50 (LOX IMVI melanoma): 116 nM
- TGI (LOX IMVI melanoma): 556 nM
- GI50 (HCC-2998 colon): 161 nM
- TGI (HCC-2998 colon): 1430 nM
- GI50 (A549 NSCLC): 83.8 nM
- TGI (A549 NSCLC): 10400 nM
- GI50 (OVCAR-3 ovarian): 192 nM
- TGI (OVCAR-3 ovarian): 523 nM
- GI50 (ACHN renal): 40.2 nM
- TGI (ACHN renal): 10600 nM
- GI50 (K-562 leukemia): 132 nM
- GI50 (KM12 colon): 123 nM
- TGI (KM12 colon): 719 nM
- GI50 (MCF7 breast): < 10.9 nM
- TGI (MCF7 breast): 848 nM
- GI50 (SR leukemia): 40.2 nM
- GI50 (SF-268 CNS): 117 nM
- TGI (SF-268 CNS): 470 nM
- GI50 (SW-620 colon): 35.2 nM
- TGI (SW-620 colon): 418 nM

— PubChem BioAssay (NCI)
